# Assay results from US12448369B2 (Edgewise Therapeutics, Inc., priority 2023, dated 2025).
# Columns and labels:
# [1] = target: T1, Porcine ventricle myofibrils (ventricular myosin ATPase) (Sus scrofa, UniProt P79293); test: Myofibril ATPase assay, porcine ventricle myofibrils; type: biochemical, porcine (Yucatan minipigs); details: porcine ventricle myofibrils
# T1 construct: Myofibrils from porcine cardiac muscle was isolated from the left ventricle of Yucatan minipigs; tissue Exemplar Genetics; host or cells: left ventricle of Yucatan minipigs, myofibrils prepared in house
# Procedure, shortened: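 Read-out: A340 kinetic, NADH consumption coupled to ADP via PK-LDH, 75 min. Yucatan minipig LV myofibrils, pCa buffer (PIPES/CaCl2/EGTA, pH 7.0). Linear-regression slope (mAU/min), vehicle = 100%, 4PL fit; Y75 or Y125 reported.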
# [2] = tested on: Rabbit Psoas myofibrils (skeletal myosin ATPase); test: Myofibril ATPase assay, rabbit psoas (skeletal) myofibrils; type: biochemical; details: rabbit psoas myofibrils
# Procedure, shortened: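 Values derive from concentration–response fits of NADH consumption rates at 340 nm, normalized to vehicle-only wells, as Y75 or Y125. Myofibril ATP turnover was linked to NADH via PK/LDH in Ca/EGTA-buffered PIPES, pH 7.0, and read over 75 min.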
# [3] = tested on: Porcine atria myofibrils (atrial myosin ATPase); test: Myofibril ATPase assay, porcine atria myofibrils; type: biochemical; details: porcine atria myofibrils
# Procedure, shortened: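 Atrial myofibril ATPase measured by NADH-coupled absorbance at 340 nm; vehicle-normalized slopes fitted to give Y75 or Y125 values.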
# [4] = Y75 value (75% activity relative to no compound)
# [5] = ‡ Y125 value, not a Y75 value (125% activity relative to no compound)
# T1 sequence (P79293 whole entry): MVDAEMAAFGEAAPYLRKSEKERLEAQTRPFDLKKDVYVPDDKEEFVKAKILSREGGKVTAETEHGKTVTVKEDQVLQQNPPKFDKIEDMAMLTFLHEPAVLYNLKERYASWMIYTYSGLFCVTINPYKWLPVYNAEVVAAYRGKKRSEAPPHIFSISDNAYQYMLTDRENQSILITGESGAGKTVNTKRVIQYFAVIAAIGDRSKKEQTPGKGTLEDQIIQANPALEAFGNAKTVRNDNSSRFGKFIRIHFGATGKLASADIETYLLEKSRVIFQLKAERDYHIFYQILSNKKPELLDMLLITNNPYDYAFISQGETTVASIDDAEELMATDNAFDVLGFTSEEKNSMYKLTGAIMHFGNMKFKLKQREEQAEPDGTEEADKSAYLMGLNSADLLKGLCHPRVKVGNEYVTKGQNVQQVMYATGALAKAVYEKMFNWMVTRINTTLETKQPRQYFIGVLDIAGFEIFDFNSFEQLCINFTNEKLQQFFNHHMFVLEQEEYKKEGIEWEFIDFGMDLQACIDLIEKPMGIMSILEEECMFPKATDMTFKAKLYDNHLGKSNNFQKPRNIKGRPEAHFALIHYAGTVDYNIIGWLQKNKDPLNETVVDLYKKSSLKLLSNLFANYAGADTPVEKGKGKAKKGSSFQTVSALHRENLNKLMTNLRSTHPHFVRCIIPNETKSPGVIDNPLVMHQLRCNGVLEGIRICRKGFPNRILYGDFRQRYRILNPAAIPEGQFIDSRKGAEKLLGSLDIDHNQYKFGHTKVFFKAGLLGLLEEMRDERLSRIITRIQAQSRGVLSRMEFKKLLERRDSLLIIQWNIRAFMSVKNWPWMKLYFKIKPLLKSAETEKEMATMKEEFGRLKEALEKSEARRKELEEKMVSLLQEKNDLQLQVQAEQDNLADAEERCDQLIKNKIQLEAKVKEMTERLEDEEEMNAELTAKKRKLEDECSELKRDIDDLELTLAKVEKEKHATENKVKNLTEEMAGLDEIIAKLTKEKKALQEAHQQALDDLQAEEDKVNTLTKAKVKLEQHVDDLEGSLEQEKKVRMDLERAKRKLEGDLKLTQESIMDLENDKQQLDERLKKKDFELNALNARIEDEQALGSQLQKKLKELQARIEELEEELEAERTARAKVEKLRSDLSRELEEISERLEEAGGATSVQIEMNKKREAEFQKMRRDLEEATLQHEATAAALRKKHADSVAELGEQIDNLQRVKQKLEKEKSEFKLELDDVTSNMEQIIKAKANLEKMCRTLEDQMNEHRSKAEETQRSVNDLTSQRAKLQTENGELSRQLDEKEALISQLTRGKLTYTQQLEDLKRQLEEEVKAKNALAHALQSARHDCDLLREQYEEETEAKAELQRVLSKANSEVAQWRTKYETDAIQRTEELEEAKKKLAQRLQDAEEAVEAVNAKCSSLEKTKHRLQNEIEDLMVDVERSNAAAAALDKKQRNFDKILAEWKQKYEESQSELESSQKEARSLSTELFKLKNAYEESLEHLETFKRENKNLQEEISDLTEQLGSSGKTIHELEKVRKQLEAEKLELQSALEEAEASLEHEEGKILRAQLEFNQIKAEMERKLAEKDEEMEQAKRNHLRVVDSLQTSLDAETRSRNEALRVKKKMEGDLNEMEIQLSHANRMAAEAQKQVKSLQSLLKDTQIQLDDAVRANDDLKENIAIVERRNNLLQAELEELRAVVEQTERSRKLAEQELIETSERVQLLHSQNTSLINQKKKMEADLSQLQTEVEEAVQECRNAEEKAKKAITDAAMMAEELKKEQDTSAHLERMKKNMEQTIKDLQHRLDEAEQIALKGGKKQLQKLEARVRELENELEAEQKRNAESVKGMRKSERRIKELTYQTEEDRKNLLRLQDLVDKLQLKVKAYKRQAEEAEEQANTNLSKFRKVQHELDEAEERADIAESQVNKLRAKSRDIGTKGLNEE
Ventricular EC25 ([1]; Y75 value (no ‡ mark)) [µM],Skeletal EC25 ([2]; Y75 value (no ‡ mark)) [µM],Atrial EC25 ([3]; Y75 value (no ‡ mark)) [µM],Ventricular EC25 ([1]; Y75 value) [µM],Skeletal EC25 ([2]; Y75 value) [µM],"Atrial EC25 [3, 4] [µM]",SMILES,other results
3.04,0.14,0.44,,,,Cc1c(CC(=O)N[C@@H](C)c2ncc(C#N)cc2F)c(=O)[nH]c2cc(F)ccc12 [compound 1079],
,,,100.00,100.00,100.00,"Cc1nccc2[nH]c(=O)c(CC(=O)N[C@@H](C)c3ncccc3F)c(C)c12 (single isomer, unassigned) [compound 268]",
,,,0.83,0.11,0.11,Cc1c(CC(=O)N[C@@H](C)c2ccc(C#N)cc2F)c(=O)[nH]c2ccnc(OC3CC3)c12 [compound 202],
,,,100.00,1.10,100.00,Cc1c(CC(=O)N[C@H](CO)c2ccc(C#N)cc2F)c(=O)[nH]c2ccnc(OC3CC3)c12 [compound 203],
3.41,1.30,0.43,,,,"Cc1c(C2(C(=O)N[C@H](C)c3ncc(C#N)cn3)CC2)c(=O)[nH]c2ccc(F)cc12 (single isomer, unassigned) [compound 2590]",
100.00,100.00,100.00,,,,"COc1ccc2[nH]c(=O)c(CC(=O)N[C@H](C)c3ncc(F)cc3F)cc2c1C (single isomer, unassigned) [compound 79]",
0.13,0.04,0.03,,,,Cc1c(CC(=O)N[C@H](C)c2ncc(C#N)cc2F)c(=O)[nH]c2ccc(F)c(C(F)(F)F)c12 [compound 21],
0.10,0.02,0.06,,,,Cc1cc(C#N)ncc1[C@@H](C)NC(=O)Cc1c(C)c2c(C)c(F)ccc2[nH]c1=O [compound 1044],
,,,0.38,0.02,0.10,Cc1nccc2[nH]c(=O)c(CC(=O)N[C@H]3CCc4cc(F)cc(F)c43)c(C)c12 [compound 406],
1.72,2.50,0.22,,,,Cc1c(CC(=O)N[C@H](C)c2ncc(C#N)cn2)c(=O)[nH]c2ccc(F)cc12 [compound 1070],
0.46,0.01,0.69,,,,C[C@H](NC(=O)Cc1c(C2CC2)c2cc(F)ccc2[nH]c1=O)c1ccc(C#N)cc1F [compound 74],
100.00,100.00,100.00,,,,"C[C@@H](NC(=O)C(F)(F)c1cc2cc(F)ccc2[nH]c1=O)c1cccc(C#N)n1 (single isomer, unassigned) [compound 2581]",
0.22,0.02,0.23,,,,Cc1c(CC(=O)N[C@H](C)c2ccc(C#N)cc2F)c(=O)[nH]c2ccc(F)c(F)c12 [compound 65],
1.73,2.2,0.29,,,,Cc1ccncc1[C@@H](C)NC(=O)Cc1c(C)c2cc(F)ccc2[nH]c1=O [compound 1048],
,,,15.06,0.14,1.25,Cc1c(CC(=O)N[C@@H](C)c2ccc(F)cc2F)c(=O)[nH]c2ccnc(NC3CC3)c12 [compound 276],
,,,100.00,100.00,100.00,"COc1cccc([C@H](C)NC(=O)Cc2c(C)c3c(C)nccc3[nH]c2=O)n1 (single isomer, unassigned) [compound 310]",

Ventricular EC25 ([1]; Y75 value (no ‡ mark)) [µM],Skeletal EC25 ([2]; Y75 value (no ‡ mark)) [µM],Atrial EC25 ([3]; Y75 value (no ‡ mark)) [µM],Ventricular EC25 ([1]; Y75 value) [µM],Skeletal EC25 ([2]; Y75 value) [µM],"Atrial EC25 [3, 4] [µM]",SMILES,other results
,,,1.99,0.06,0.99,CC#Cc1nccc2[nH]c(=O)c(CC(=O)N[C@@H](C)c3ccc(F)cc3F)c(C)c12 [compound 350],
76,7.39,18.0,,,,Cc1c(CC(=O)N[C@@H](C)c2ncc(C#N)cn2)c(=O)[nH]c2cc(F)ccc12 [compound 1041],
100.00,0.07,0.15,,,,"C[C@H](NC(=O)[C@@H](C)c1c(C(F)(F)F)c2cc(F)ccc2[nH]c1=O)c1ccc(F)cc1F (single isomer, unassigned) [compound 57]",
,,,,,,"C[C@H](NC(=O)C(F)(F)c1cc2cc(F)ccc2[nH]c1=O)c1cccc(C#N)n1 (single isomer, unassigned) [compound 2582]","Ventricular EC25 [1, 5]: 68.39‡ μM; Skeletal EC25 [2, 5]: 75.10‡ μM; Atrial EC25 [3, 5]: 100.00‡ μM"
100.00,100.00,100.00,,,,"Cc1c(C2(C(=O)N[C@@H]3CCc4cc(C#N)cnc43)CC2)c(=O)[nH]c2ccc(F)cc12 (single isomer, unassigned) [compound 2503]",
,,,100.00,100.00,100.00,"Cc1nccc2[nH]c(=O)c([C@H](C)C(=O)N[C@H](C)c3ccc(C#N)cc3F)c(C)c12 (single isomer, unassigned) [compound 184]",
100.00,21,100.00,,,,Cc1c(CC(=O)N[C@H]2COCc3cc(C#N)cnc32)c(=O)[nH]c2ccc(F)cc12 [compound 1057],
0.77,0.10,0.08,,,,"Cc1c(C(F)(F)C(=O)N[C@H](C)c2ncc(C#N)cc2F)c(=O)[nH]c2ccc(F)cc12 (single isomer, unassigned) [compound 2606]",
100.00,100.00,18.28,,,,C[C@@H](NC(=O)Cc1cc2cc(F)ccc2[nH]c1=O)c1ccc(C#N)cn1 [compound 1125],
100.00,100.00,100.00,,,,C[C@@H](NC(=O)Cc1cc2cc(F)c(F)cc2[nH]c1=O)c1cnc(C#N)nc1 [compound 1074],
100.00,100.00,2.76,,,,"Cc1c(C2(C(=O)N[C@H](C)c3cc(C#N)ccn3)CC2)c(=O)[nH]c2ccc(F)c(F)c12 (single isomer, unassigned) [compound 2539]",
9.83,0.17,0.90,,,,CNc1c(CC(=O)N[C@@H](C)c2ccc(F)cc2F)c(=O)[nH]c2ccccc12 [compound 128],
1.57,0.24,0.72,,,,Cc1c(CC(=O)N[C@H](C)c2ccc(C#N)cn2)c(=O)[nH]c2ccc(F)cc12 [compound 1127],
0.11,0.23,0.04,,,,Cc1c(CC(=O)N[C@@H](C)c2ccc(F)cc2F)c(=O)[nH]c2ccc(F)c(C3CC3)c12 [compound 101],
,,,100.00,100.00,100.00,"Cc1nccc2[nH]c(=O)c(CC(=O)N[C@H](C)c3ccc(O)cc3)c(C)c12 (single isomer, unassigned) [compound 328]",
,,,100.00,3.86,100.00,"Cc1c(CC(=O)N[C@H](C)c2ncc(F)cc2F)c(=O)[nH]c2ccnc(C(F)(F)F)c12 (single isomer, unassigned) [compound 265]",
